Tested on: KRAS PDC multicell spheroid viability
Assay: Anticancer human tumor 521955-158-R6-J3-PDC patient-derived pancreatic carcinoma cell line growth inhibition [KRAS2]
Conditions: for IC50: curve of first compound; for viability, T/C: stronger effect = lower value
How it was run: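 KRAS-mutant tumor cells were grown as spheroids with HUVEC endothelial cells and human MSCs as stroma. Targeted agents were tested alone and with KRAS pathway inhibitors. Doses started at or near clinical Cmax, or 10 microM, descending half-log.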

[1] = second compound 0.1 µM, first compound 0.0316 µM
[2] = second compound 0.1 µM, first compound 0.1 µM
[3] = second compound 0.1 µM, first compound 0.316 µM
[4] = second compound 0.1 µM, first compound 1 µM
[5] = second compound 0.1 µM, first compound 3.16 µM
[6] = second compound 0.1 µM, first compound 10 µM
[7] = second compound 0.316 µM, first compound 0.0316 µM
[8] = second compound 0.316 µM, first compound 0.1 µM
[9] = second compound 0.316 µM, first compound 0.316 µM
[10] = second compound 0.316 µM, first compound 1 µM
[11] = second compound 0.316 µM, first compound 3.16 µM
[12] = second compound 0.316 µM, first compound 10 µM
[13] = second compound 1 µM, first compound 0.0316 µM
[14] = second compound 1 µM, first compound 0.1 µM
[15] = second compound 1 µM, first compound 0.316 µM
[16] = second compound 1 µM, first compound 1 µM
[17] = second compound 1 µM, first compound 3.16 µM
[18] = second compound 1 µM, first compound 10 µM
[19] = second compound 3.16 µM, first compound 0.0316 µM
[20] = second compound 3.16 µM, first compound 0.1 µM
[21] = second compound 3.16 µM, first compound 0.316 µM
[22] = second compound 3.16 µM, first compound 1 µM
[23] = second compound 3.16 µM, first compound 3.16 µM
[24] = second compound 3.16 µM, first compound 10 µM
[25] = second compound 10 µM, first compound 0.0316 µM
[26] = second compound 10 µM, first compound 0.1 µM
[27] = second compound 10 µM, first compound 0.316 µM
[28] = second compound 10 µM, first compound 1 µM
[29] = second compound 10 µM, first compound 3.16 µM
[30] = second compound 10 µM, first compound 10 µM
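Also: drug exposure lasted seven days.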
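For viability, T/C in this document: 100% = DMSO vehicle wells and lower means fewer viable cells.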

| Structure (SMILES) | IC50 (second compound 0.1 µM) [µM] | IC50 (second compound 0.316 µM) [µM] | IC50 (second compound 1 µM) [µM] | IC50 (second compound 3.16 µM) [µM] | viability, T/C [1] [%] | viability, T/C [2] [%] | viability, T/C [3] [%] | viability, T/C [4] [%] | viability, T/C [5] [%] | viability, T/C [6] [%] | viability, T/C [7] [%] | viability, T/C [8] [%] | viability, T/C [9] [%] | viability, T/C [10] [%] | viability, T/C [11] [%] | viability, T/C [12] [%] | viability, T/C [13] [%] | viability, T/C [14] [%] | viability, T/C [15] [%] | viability, T/C [16] [%] | other results |
| --- | --- | --- | --- | --- | --- | --- | --- | --- | --- | --- | --- | --- | --- | --- | --- | --- | --- | --- | --- | --- | --- |
| O=C(c1cc(Cc2n[nH]c(=O)c3ccccc23)ccc1F)N1CCN(C(=O)C2CC2)CC1 + CC1OCC2(CCN(c3cnc(Sc4ccnc(N)c4Cl)c(N)n3)CC2)C1N | > 10 | > 10 | > 10 | > 10 | 83 | 79.6 | 75.8 | 69.6 | 73.5 | 84.1 | 83.8 | 85.8 | 84.1 | 74.8 | 66.2 | 69.5 | 75.8 | 78.2 | 81 | 76 | IC50 (second compound 10 µM): > 10 µM; viability, T/C [17]: 71.9%; viability, T/C [18]: 75.9%; viability, T/C [19]: 96%; viability, T/C [20]: 98.6%; viability, T/C [21]: 88%; viability, T/C [22]: 75.9%; viability, T/C [23]: 78.3%; viability, T/C [24]: 72.1%; viability, T/C [25]: 85.3%; viability, T/C [26]: 85.6%; viability, T/C [27]: 61.5%; viability, T/C [28]: 70.3%; viability, T/C [29]: 70.8%; viability, T/C [30]: 63.9% |
| CC(C)NCC(C(=O)N1CCN(c2ncnc3c2C(C)CC3O)CC1)c1ccc(Cl)cc1 (stereo not given) + C=CC(=O)N1CCN(c2nc(=O)n(-c3c(C)ccnc3C(C)C)c3nc(-c4c(O)cccc4F)c(F)cc23)C(C)C1 | > 10 | > 10 | > 10 | > 10 | 90.8 | 90.4 | 74.5 | 76.2 | 79.5 | 65.7 | 94.4 | 89 | 72.5 | 81.3 | 79.8 | 58.6 | 93.5 | 83.4 | 75.8 | 69.7 | IC50 (second compound 10 µM): 0.683 µM; viability, T/C [17]: 66.9%; viability, T/C [18]: 65.5%; viability, T/C [19]: 85.7%; viability, T/C [20]: 72%; viability, T/C [21]: 66.5%; viability, T/C [22]: 64.9%; viability, T/C [23]: 57.4%; viability, T/C [24]: 57.4%; viability, T/C [25]: 75.3%; viability, T/C [26]: 63.2%; viability, T/C [27]: 54.6%; viability, T/C [28]: 43.3%; viability, T/C [29]: 50.3%; viability, T/C [30]: 43.7% |
| CC(C)NCC(C(=O)N1CCN(c2ncnc3c2C(C)CC3O)CC1)c1ccc(Cl)cc1 (stereo not given) + C=CC(=O)N1CCN(c2nc(OCC3CCCN3C)nc3c2CCN(c2cccc4cccc(C)c24)C3)CC1CC#N | > 10 | > 10 | > 10 | < 0.0316 | 76.8 | 87.5 | 74.4 | 66.2 | 74.3 | 57.4 | 79.1 | 74.2 | 74.3 | 66.7 | 74.3 | 65.1 | 63.3 | 59 | 68.5 | 58.9 | IC50 (second compound 0.0316 µM): > 10 µM; viability, T/C (second compound 0.0316 µM, first compound 0.0316 µM): 80.4%; viability, T/C (second compound 0.0316 µM, first compound 0.1 µM): 86.4%; viability, T/C (second compound 0.0316 µM, first compound 0.316 µM): 84.4%; viability, T/C (second compound 0.0316 µM, first compound 1 µM): 75.9%; viability, T/C (second compound 0.0316 µM, first compound 3.16 µM): 76.3%; viability, T/C (second compound 0.0316 µM, first compound 10 µM): 65%; viability, T/C [17]: 58.3%; viability, T/C [18]: 57.4%; viability, T/C [19]: 43.9%; viability, T/C [20]: 38%; viability, T/C [21]: 35.2%; viability, T/C [22]: 29.1%; viability, T/C [23]: 25.1%; viability, T/C [24]: 15.8% |
| COc1cc(Nc2ncc3c(n2)-c2ccc(Cl)cc2C(c2c(F)cccc2OC)=NC3)ccc1C(=O)O + CNCc1ccccc1-c1csc(C(C)Nc2nc(C)nc3cc(OC)c(OC)cc23)c1 | > 10 | > 10 | > 10 | < 0.0316 | 95.5 | 89.9 | 94.6 | 101 | 113 | 89.4 | 104 | 84.6 | 90.9 | 88.7 | 90.7 | 104 | 93.6 | 73.3 | 86.7 | 78.2 | IC50 (second compound 10 µM): < 0.0316 µM; viability, T/C [17]: 87.3%; viability, T/C [18]: 88.6%; viability, T/C [19]: 1.45%; viability, T/C [20]: 0.8%; viability, T/C [21]: 0.53%; viability, T/C [22]: 1.47%; viability, T/C [23]: 2.38%; viability, T/C [24]: 2.86%; viability, T/C [25]: 0.82%; viability, T/C [26]: 1.21%; viability, T/C [27]: 0.68%; viability, T/C [28]: 0.35%; viability, T/C [29]: 0.3%; viability, T/C [30]: 0.59% |
| CCNC(=O)CC1N=C(c2ccc(Cl)cc2)c2cc(OC)ccc2-n2c(C)nnc21 (stereo not given) + CC1OCC2(CCN(c3cnc(Sc4ccnc(N)c4Cl)c(N)n3)CC2)C1N | > 10 | > 10 | > 10 | > 10 | 84.1 | 83.5 | 58.9 | 73.5 | 62.6 | 73.3 | 102 | 90.3 | 69.3 | 68.1 | 56.4 | 62.2 | 99.5 | 86.6 | 70.8 | 65.9 | IC50 (second compound 10 µM): 1.07 µM; viability, T/C [17]: 56.4%; viability, T/C [18]: 59.8%; viability, T/C [19]: 106%; viability, T/C [20]: 103%; viability, T/C [21]: 77%; viability, T/C [22]: 62.6%; viability, T/C [23]: 58%; viability, T/C [24]: 53.3%; viability, T/C [25]: 115%; viability, T/C [26]: 105%; viability, T/C [27]: 76.4%; viability, T/C [28]: 50%; viability, T/C [29]: 43.2%; viability, T/C [30]: 43% |
